# Laboratory results: patent US20090238808A1, “Process for the identification of novel enzyme interacting compounds” (priority 2005, published 2009)
# What was measured:
# protein kinase C beta = protein kinase C beta (Homo sapiens, UniProt P05771); test: In-lysate competition binding with kinobeads, Jurkat lysate, iTRAQ MS; settings: for Relative Intensity, PKCb (PRKCB1): DMSO control = 1.0
# Method: (§1) This example illustrates competition binding in cell lysates (see particularly the third aspect of the invention). A test compound, Bisindolylmaleimide VIII (Bis VIII, a well known kinase inhibitor; Davies et al., 2000. Specificity and mechanism of action of some commonly used protein kinase inhibitors. Biochemical Journal 351 (Pt 1): 95-105) was added to a cell lysate thereby allowing the test compound to bind to the target proteins in the lysate. Then the lysate was contacted with the kinobeads affinity matrix to capture remaining free target proteins. The proteins bound to the kinobeads matrix were then eluted with detergent-containing buffer, separated on a SDS-polyacryamide gel and analyzed by immunodetection (Western blots) or mass spectrometry detection.
# (§2) For the quantitative detection of proteins by mass spectrometry proteins were eluted from the affinity matrix and subsequently separated by SDS-Polyacrylamide gel elecrophoresis. Suitable gel areas were cut out and subjected to in-gel proteolytic digestion with trypsin.
# (§3) Four tryptic digest samples (corresponding to three different Bis VIII concentrations in the lysate and one DMSO control) were labeled with ITRAQ reagents and the combined samples were analyzed in a single LC-MS/MS mass spectrometry analysis followed by peak quantification in the MS/MS spectrum (Ross et al., 2004. Multiplexed protein quantitation in Saccharomyces cerevisiae using amine-reactive isobaric tagging reagents. Mol. Cell. Proteomics 3(12): 1154-1169). […] Binding curves for individual kinases are shown (FIG. 5). The relative intensity 50 (RI50) values representing the affinity of kinase-compound pairs are similar to IC50 values reported by kinase enzyme assays (Davies et al., 2000. Specificity and mechanism of action of some commonly used protein kinase inhibitors. Biochemical Journal 351 (Pt 1): 95-105).
# (§4) Aliqots of Jurkat lysate (10 mg protein) were incubated with different Bis VIII concentrations for one hour at 4° C. (0.025 μM, 0.074 μM, 0.22 μM, 0.67 μM, 2.0 μM and 6.0 μM final concentration of Bis VIII). To this end Bis VIII solutions were prepared in 100% DMSO as solvent that corresponded to 200 fold desired final Bis VIII concentration (Bis VIII from Alexis Biochemicals cat. number ALX 270-056). Five μl of these solutions were added to 1 ml of lysate resulting in the indicated final concentrations. For a control experiment 5 μl of DMSO without Bis VIII were used.
# (§5) To each preincubated lysate sample 40 μl of kinobeads (see example 1) were added and incubated for one hour at 4° C. During the incubation the tubes were rotated on an end-over-end shaker (Roto Shake Genie, Scientific Industries Inc.). Beads were collected by centrifugation, transfered to Mobicol-columns (MoBiTech 10055) and washed with 10 ml 1×DP buffer containing 0.4% NP40 detergent, followed by a wash with 5 ml 1×DP buffer with 0.2% NP40. To elute the bound proteins, 100 μl 2×SDS sample buffer was added, the column was heated for 30 minutes at 50° C. and the eluate was transferred to a microfuge tube by centrifugation. Proteins were then separated by SDS-Polyacrylamide electrophoresis (SDS-PAGE). The composition and preparation of buffers is described in example 2.
# (§6) The peptide extracts of samples treated with different concentrations of the test compound (0.074 μM, 0.22 μM and 0.67 μM Bis VIII) and the solvent control (0.5% DMSO) were treated with different isomers of the isobaric tagging reagent (iTRAQ Reagents Multiplex Kit, part number 4352135, Applied Biosystems, Foster City, Calif., USA). The iTRAQ reagents are a set of multiplexed, amine-specific, stable isotope reagents that can label all peptides in up to four different biological samples enabling simultaneous identification and quantitation of peptides. The iTRAQ reagents were used according to instructions provided by the manufacturer. […]
# protein kinase C alpha = biological target: T1, protein kinase C alpha (Homo sapiens, UniProt P17252); test: as above; settings: for Relative Intensity, PKCa (PRKCA): DMSO control = 1.0
# T1 construct: Aliqots of Jurkat lysate (10 mg protein) were incubated with different Bis VIII concentrations; endogenous in cells; host or cells: Jurkat clone E6-1 lysate
# Method: as §1, §2, §3, §4, §5, §6
# [1] = biological target: T2, Glycogen Synthase Kinase 3 alpha (Homo sapiens, UniProt P49840); test: as above; settings: for Relative Intensity, GSK3A: DMSO control = 1.0
# T2 construct: endogenous in cells; host or cells: Jurkat clone E6-1 lysate
# Method: as §1, §2, §3, §4, §5, §6
# [2] = biological target: T3, Glycogen Synthase Kinase 3 beta (Homo sapiens, UniProt P49841); test: as above; settings: for Relative Intensity, GSK3B: DMSO control = 1.0
# T3 construct: Aliqots of Jurkat lysate (10 mg protein) were incubated with different Bis VIII concentrations; endogenous in cells; host or cells: Jurkat clone E6-1 lysate
# Method: as §1, §2, §3, §4, §5, §6
# CDKL5 = CDKL5 (Mus musculus, UniProt Q3UTQ8); test: Kinobeads elution with test compound, mouse brain lysate, MS; type: binding; settings: kinase released from kinobeads by specific elution
# From the text: This example illustrates competitive elution of proteins bound to kinobeads with non-modified test compounds (see particularly the fourth aspect of the invention). […] The kinobeads were contacted with mouse brain lysate under conditions that allow the binding of the proteins in the lysate to the ligands. The binding conditions were close to physiological by choosing suitable buffer conditions preserving the function of the proteins. After removing non-captured proteins through a gentle washing procedure the bound proteins were contacted with a test compound for protein elution. […] 1. […] Transfer 20 μl the 1:3 slurry into MoBiTech columns (equivalent to 5 μl of beads). 3. Place the column into an Eppendorf tube and centrifuge it for 15 seconds at 800 rpm at 4° C. Close columns with lower lid. 4. Add 10 μl elution buffer containing 1.0 mM of the test compound (concentration ranges of 0.1 to 1.0 mM are suitable). […] Close column with upper lid. 5. Incubate for 30 minutes at 4° C. in an Eppendorf incubator at 700 rpm. 6. Open column (first top, then bottom), put column back into siliconized tube ([…] Microcentrifuge Tubes, cat. no 11270, Sorenson BioScience, Inc.). To harvest the eluate centrifuge 2 minutes at 2.000 rpm in table top centrifuge at room temperature. The typical volume of the eluate is approximately 15 μl. 7. […]
# T3 sequence (P49841 whole entry): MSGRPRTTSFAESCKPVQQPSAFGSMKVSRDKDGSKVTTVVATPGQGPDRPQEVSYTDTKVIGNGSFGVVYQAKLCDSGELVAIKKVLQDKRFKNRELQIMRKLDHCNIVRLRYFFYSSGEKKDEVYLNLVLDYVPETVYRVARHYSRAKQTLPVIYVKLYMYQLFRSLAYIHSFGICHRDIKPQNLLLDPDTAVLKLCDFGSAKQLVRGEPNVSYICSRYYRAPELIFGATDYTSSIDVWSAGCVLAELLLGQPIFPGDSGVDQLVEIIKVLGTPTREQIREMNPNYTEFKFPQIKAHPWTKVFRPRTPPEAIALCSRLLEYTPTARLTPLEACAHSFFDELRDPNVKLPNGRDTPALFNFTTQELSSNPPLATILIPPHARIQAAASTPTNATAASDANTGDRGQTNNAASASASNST
# T2 sequence (P49840 whole entry): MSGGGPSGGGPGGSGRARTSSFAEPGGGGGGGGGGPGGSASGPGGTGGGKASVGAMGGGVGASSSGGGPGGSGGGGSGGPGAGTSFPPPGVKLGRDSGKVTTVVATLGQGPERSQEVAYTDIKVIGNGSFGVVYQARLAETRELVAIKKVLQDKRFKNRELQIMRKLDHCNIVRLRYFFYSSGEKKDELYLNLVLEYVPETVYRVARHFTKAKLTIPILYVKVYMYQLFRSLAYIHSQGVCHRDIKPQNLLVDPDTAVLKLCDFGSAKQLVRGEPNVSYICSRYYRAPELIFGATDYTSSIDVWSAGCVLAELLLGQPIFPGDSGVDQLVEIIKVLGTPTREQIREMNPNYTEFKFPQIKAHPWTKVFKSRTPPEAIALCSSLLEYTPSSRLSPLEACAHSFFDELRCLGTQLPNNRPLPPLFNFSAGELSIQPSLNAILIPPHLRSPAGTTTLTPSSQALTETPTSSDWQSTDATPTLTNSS
# Sequence of protein kinase C beta (P05771 whole entry): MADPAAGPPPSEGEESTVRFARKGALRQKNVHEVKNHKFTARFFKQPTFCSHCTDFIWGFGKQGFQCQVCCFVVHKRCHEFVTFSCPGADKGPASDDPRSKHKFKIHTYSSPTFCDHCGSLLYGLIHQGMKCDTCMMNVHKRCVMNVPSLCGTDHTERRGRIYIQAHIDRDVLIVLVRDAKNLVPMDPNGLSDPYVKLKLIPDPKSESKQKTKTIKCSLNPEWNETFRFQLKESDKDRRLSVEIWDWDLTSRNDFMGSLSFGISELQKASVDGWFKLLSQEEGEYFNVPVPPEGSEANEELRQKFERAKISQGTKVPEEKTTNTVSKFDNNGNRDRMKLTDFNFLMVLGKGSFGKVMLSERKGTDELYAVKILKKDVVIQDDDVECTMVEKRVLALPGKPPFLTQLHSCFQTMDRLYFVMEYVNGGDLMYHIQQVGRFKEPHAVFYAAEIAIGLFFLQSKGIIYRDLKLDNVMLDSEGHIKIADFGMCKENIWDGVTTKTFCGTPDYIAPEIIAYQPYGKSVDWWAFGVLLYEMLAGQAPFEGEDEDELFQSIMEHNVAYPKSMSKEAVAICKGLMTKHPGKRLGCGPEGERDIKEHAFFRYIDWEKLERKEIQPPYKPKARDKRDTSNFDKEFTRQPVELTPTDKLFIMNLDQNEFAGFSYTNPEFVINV
# Sequence of CDKL5 (Q3UTQ8 whole entry): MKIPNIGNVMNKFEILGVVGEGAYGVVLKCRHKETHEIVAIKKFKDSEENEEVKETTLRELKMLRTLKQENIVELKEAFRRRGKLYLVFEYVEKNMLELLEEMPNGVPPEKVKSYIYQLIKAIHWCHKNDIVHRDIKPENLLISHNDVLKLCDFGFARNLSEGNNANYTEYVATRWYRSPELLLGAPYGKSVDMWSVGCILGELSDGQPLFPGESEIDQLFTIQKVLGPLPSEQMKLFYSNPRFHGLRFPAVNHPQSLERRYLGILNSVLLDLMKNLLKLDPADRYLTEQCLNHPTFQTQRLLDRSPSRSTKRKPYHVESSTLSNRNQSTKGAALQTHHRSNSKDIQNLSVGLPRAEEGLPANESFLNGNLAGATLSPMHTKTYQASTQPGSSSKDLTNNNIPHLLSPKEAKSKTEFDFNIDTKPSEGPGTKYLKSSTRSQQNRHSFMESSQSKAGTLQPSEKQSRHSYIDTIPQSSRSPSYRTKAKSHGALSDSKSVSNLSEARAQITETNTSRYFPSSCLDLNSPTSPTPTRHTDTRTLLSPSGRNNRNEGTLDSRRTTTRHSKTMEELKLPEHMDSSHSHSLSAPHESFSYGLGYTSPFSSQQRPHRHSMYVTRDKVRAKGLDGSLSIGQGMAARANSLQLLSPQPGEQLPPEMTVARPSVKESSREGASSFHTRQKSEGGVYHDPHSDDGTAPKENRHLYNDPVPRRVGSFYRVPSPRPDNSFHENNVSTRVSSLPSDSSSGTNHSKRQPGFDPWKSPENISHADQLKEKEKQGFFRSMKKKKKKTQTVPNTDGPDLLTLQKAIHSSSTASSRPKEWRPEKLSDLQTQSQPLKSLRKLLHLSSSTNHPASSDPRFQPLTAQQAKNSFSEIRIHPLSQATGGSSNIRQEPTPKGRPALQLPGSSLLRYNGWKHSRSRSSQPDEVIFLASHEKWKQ
"Relative Intensity, PKCb (PRKCB1) (protein kinase C beta; 0.074 uM in lysate)","Relative Intensity, PKCb (PRKCB1) (protein kinase C beta; 0.67 uM in lysate)","IC50 (protein kinase C beta; Jurkat cell lysate, concentration at which relative intensity of the MS signal is 50% of DMSO control, read-out: RI50 (PKCb)) [nM]","Relative Intensity, PKCa (PRKCA) (protein kinase C alpha; 0.074 uM in lysate)","Relative Intensity, PKCa (PRKCA) (protein kinase C alpha; 0.67 uM in lysate)","IC50 (protein kinase C alpha; Jurkat cell lysate, concentration at which relative intensity of the MS signal is 50% of DMSO control, read-out: RI50 (PKCa)) [nM]","Relative Intensity, GSK3A ([1]; 0.074 uM in lysate)","Relative Intensity, GSK3A ([1]; 0.67 uM in lysate)","IC50 ([1]; Jurkat cell lysate, concentration at which relative intensity of the MS signal is 50% of DMSO control, read-out: RI50 (GSKa)) [nM]","Relative Intensity, GSK3B ([2]; 0.074 uM in lysate)","Relative Intensity, GSK3B ([2]; 0.67 uM in lysate)","IC50 ([2]; Jurkat cell lysate, concentration at which relative intensity of the MS signal is 50% of DMSO control, read-out: RI50 (GSKb)) [nM]","mass spectrometry score, CDKL5 (CDKL5)","number of identified peptides, CDKL5 (CDKL5)",Compound
0.29,0.17,21.5,0.25,0.18,12.2,0.50,0.20,72.7,0.54,0.28,95,,,"Cn1cc(C2=C(c3cn(CCCN)c4ccccc34)C(=O)NC2=O)c2ccccc21 [Bis VIII, Bisindolylmaleimide VIII]"
,,,,,,,,,,,,48,1,"CC(C)[C@H](CO)Nc1nc(Nc2ccc(C(=O)O)c(Cl)c2)c2ncn(C(C)C)c2n1 [Purvalanol B, reference compound]"
